US6989389B2, “Aryl ether substituted imidazoquinolines” (3M Innovative Properties Co., priority 2000, dated 2006)
Structures can show the parent of a compound that is named as a salt. Where two headings read alike, the source gives them in different places.

Assays:
[1] = tested on: Peripheral blood mononuclear cells (PBMC); assay: Cytokine Induction in Human Cells (in vitro human blood cell system, IFN and TNF secreted into culture media); assay type: cell-based; design: key to Lowest Effective Concentration (μM) Tumor Necrosis Factor / Lowest Effective Concentration (μM) Interferon: *: no induction was seen at any of the tested concentrations; conditions: 18 to 24 hours, tested 30-0.014 μM
Description: An in vitro human blood cell system is used to assess cytokine induction. Activity is based on the measurement of interferon and tumor necrosis factor (α) (IFN and TNF, respectively) secreted into culture media as described by Testerman et. al. In “Cytokine Induction by the Immunomodulators Imiquimod and S-27609”, Journal of Leukocyte Biology, 58, 365-372 (September, 1995).
Whole blood from healthy human donors is collected by venipuncture into EDTA vacutainer tubes. Peripheral blood mononuclear cells (PBMC) are separated from whole blood by density gradient centrifugation using Histopaque®-1077. Blood is diluted 1:1 with Dulbecco's Phosphate Buffered Saline (DPBS) or Hank's Balanced Salts Solution (HBSS). The PBMC layer is collected and washed twice with DPBS or HBSS and resuspended at 4×10^6 cells/mL in RPMI complete. The PBMC suspension is added to 48 well flat bottom sterile tissue culture plates (Costar, Cambridge, Mass. or Becton Dickinson Labware, Lincoln Park, N.J.) containing an equal volume of RPMI complete media containing test compound.
The compounds are solubilized in dimethyl sulfoxide (DMSO). The DMSO concentration should not exceed a final concentration of 1% for addition to the culture wells. The compounds are generally tested at concentrations ranging from 30-0.014 μM.
The solution of test compound is added at 60 μM to the first well containing RPMI complete and serial 3 fold dilutions are made in the wells. The PBMC suspension is then added to the wells in an equal volume, bringing the test compound concentrations to the desired range (30-0.014 μM). The final concentration of PBMC suspension is 2×10^6 cells/mL. The plates are covered with sterile plastic lids, mixed gently and then incubated for 18 to 24 hours at 37° C. in a 5% carbon dioxide atmosphere.
Following incubation the plates are centrifuged for 10 minutes at 1000 rpm (˜200×g) at 4° C. The cell-free culture supernatant is removed with a sterile polypropylene pipet and transferred to sterile polypropylene tubes. Samples are maintained at −30 to −70° C. until analysis. The samples are analyzed for interferon (α) by ELISA and for tumor necrosis factor (α) by ELISA or IGEN Assay.
Interferon (α) concentration is determined by ELISA using a Human Multi-Species kit from PBL Biomedical Laboratories, New Brunswick, N.J. Results are expressed in pg/mL.
Tumor necrosis factor (α) (TNF) concentration is determined using ELISA kits available from Biosource International, Camarillo, Calif. Alternately, the TNF concentration can be determined by Origen® M-Series Immunoassay and read on an IGEN M-8 analyzer from IGEN International, Gaithersburg, Md. The immunoassay uses a human TNF capture and detection antibody pair from Biosource International, Camarillo, Calif. Results are expressed in pg/mL.
The table below lists the lowest concentration found to induce interferon and the lowest concentration found to induce tumor necrosis factor for each compound.

[2] = lowest concentration found to induce interferon (α), ELISA, read-out: Lowest Effective Concentration (μM) Interferon
[3] = lowest concentration found to induce tumor necrosis factor (α), ELISA or IGEN assay
[4] = Homo sapiens, PBMC, lowest concentration found to induce interferon (α), ELISA, read-out: Lowest Effective Concentration (μM) Interferon
[5] = lowest concentration found to induce interferon (α), ELISA
[6] = Homo sapiens, PBMC, lowest concentration found to induce tumor necrosis factor (α), ELISA or IGEN assay, read-out: Lowest Effective Concentration (μM) Tumor Necrosis Factor

Compound	Lowest Effective Concentration (μM) Tumor Necrosis Factor [1, 3]	minimal effective concentration [1, 4] [µM]	further results
Cl.Nc1nc2ccccc2c2c1ncn2CCOCC#Cc1ccccc1 [Example 4, 1-{2-[(3-Phenyl-2-propynyl)oxy]ethyl}-1H-imidazo[4,5-c]quinolin-4-amine Hydrochloride]	*		minimal effective concentration [1, 2]: 0.12 µM; melting point: 231 to 236 °C
CCOCc1nc2c(N)nc3ccccc3c2n1CCOCCCc1ccccc1 (as salt: hydrochloride) [Example 16, 2-(Ethoxymethyl)-1-[2-(3-phenylpropoxy)ethyl]-1H-imidazo[4,5-c]quinolin-4-amine Hydrochloride]			melting point: 128 to 134 °C
Nc1nc2ccccc2c2c1ncn2CCOCCCc1ccc(C(=O)O)cc1 (as salt: trifluoroacetate) [Example 14, 4-{3-[2-(4-Amino-1H-imidazo[4,5-c]quinolin-1-yl)ethoxy]propyl}benzoic acid trifluoroacetate]			melting point: 235 to 237 °C
Nc1nc2ccccc2c2c1nc(CC1CC1)n2CCOc1ccccc1 [Example 137, 2-(Cyclopropylmethyl)-1-(2-phenoxyethyl)-1H-imidazo[4,5-c]quinolin-4-amine]			melting point: 191.7 to 192.6 °C
CN(C)c1ccc(CCCOCCn2cnc3c(N)nc4ccccc4c32)cc1 (as salt: trifluoroacetate) [Example 114, 1-(2-{3-[4-(Dimethylamino)phenyl]propoxy}ethyl)-1H-imidazo[4,5-c]quinolin-4-amine]			melting point: 137 to 140 °C
Nc1nc2ccccc2c2c1ncn2CCOCCCc1cccc(C(=O)O)c1 (as salt: trifluoroacetate) [Example 12, 3-{3-[2-(4-Amino-1H-imidazo[4,5-c]quinolin-1-yl)ethoxy]propyl}benzoic acid bis(trifluoroacetate)]			melting point: 138 to 140 °C
Nc1nc2ccccc2c2c1ncn2CCOCCCc1ccc(-n2cccc2)cc1 (as salt: trifluoroacetate) [Example 11, 1-(2-{3-[4-(1H-1-Pyrrolyl)phenyl]propoxy}ethyl)-1H-imidazo[4,5-c]quinolin-4-amine trifluoroacetate]			melting point: 179 to 181 °C
CC(C)c1ccccc1C#CCOCCn1cnc2c(N)nc3ccccc3c21 (as salt: hydrochloride) [Example 7, 1-(2-{[3-(2-Isopropylphenyl)-2-propynyl]oxy}ethyl)-1H-imidazo[4,5-c]quinolin-4-amine Hydrochloride]			melting point: 239 to 241 °C
C[C@@H](COCc1ccc(C#N)cc1)Cn1cnc2c(N)nc3ccccc3c21 [Example 110]	*	3.33	
CC(Cn1cnc2c(N)nc3ccccc3c21)OCc1ccc(Cl)cc1 (centres unmarked) [Example 52]	*	1.11	
CC(C)(Cn1cnc2c(N)nc3ccccc3c21)OCc1ccccc1Cl [Example 38]	*	10	
Cc1ccc(COC(C)(C)Cn2cnc3c(N)nc4ccccc4c32)cc1 [Example 36]	*		Lowest Effective Concentration (μM) Interferon [1, 5]: *
N#Cc1ccc(COCCOCn2cnc3c(N)nc4ccccc4c32)cc1 [Example 87]	*	1.11	
CC(Cn1cnc2c(N)nc3ccccc3c21)OCc1cccc2ccccc12 (centres unmarked) [Example 69]	*	1.11	
Cc1cccc(COCCCCn2cnc3c(N)nc4ccccc4c32)c1 [Example 76]	*	1.11	
CCC(COCc1ccccc1)n1c(C)nc2c(N)nc3ccccc3c21 (centres unmarked) [Example 81]	*	1.11	
Cc1cccc(COC(C)(C)Cn2cnc3c(N)nc4ccccc4c32)c1 [Example 37]	*		Lowest Effective Concentration (μM) Interferon [1, 5]: *

Compound	Lowest Effective Concentration (μM) Tumor Necrosis Factor [1, 3]	minimal effective concentration [1, 4] [µM]	further results
Nc1nc2ccccc2c2c1ncn2CCCCOCc1ccccc1 [Example 75]	*		Lowest Effective Concentration (μM) Interferon [1, 5]: *
CC[C@H](COCCCc1ccccc1)n1cnc2c(N)nc3ccccc3c21 [Example 109, 1-{(1R)-1-[(3-Phenylpropoxy)methyl]propyl}-1H-imidazo[4,5-c]quinolin-4-amine]		0.01	minimal effective concentration [1, 6]: 0.37 µM
CCC(COCc1cccc(Cl)c1)n1cnc2c(N)nc3ccccc3c21 (centres unmarked) [Example 47]	*		minimal effective concentration [1, 2]: 0.12 µM
CCCCc1nc2c(N)nc3c(c2n1CCOCc1ccc(C(F)(F)F)cc1)CCCC3 [Example 91]		0.37	minimal effective concentration [1, 6]: 10 µM
CCC(COCc1ccccc1)n1cnc2c(N)nc3ccccc3c21 (centres unmarked) [Example 24]	*	0.12	
CC(Cn1cnc2c(N)nc3ccccc3c21)Oc1ccc(-n2ccnc2)cc1 (centres unmarked) [Example 98]	*	0.37	
CCC(COc1ccc(C(C)(C)CC(C)(C)C)cc1)n1cnc2c(N)nc3ccccc3c21 (centres unmarked) [Example 103]			minimal effective concentration [1, 6]: 10 µM; Lowest Effective Concentration (μM) Interferon [1, 5]: *
CCOCc1nc2c(N)nc3ccccc3c2n1CCOCCCc1ccccc1 [Example 16, 2-(Ethoxymethyl)-1-[2-(3-phenylpropoxy)ethyl]-1H-imidazo[4,5-c]quinolin-4-amine Hydrochloride]		0.01	minimal effective concentration [1, 6]: 0.37 µM
CCC(COc1ccccc1C#N)n1cnc2c(N)nc3ccccc3c21 (centres unmarked) [Example 102]	*	0.37	
Nc1nc2ccccc2c2c1ncn2CCOc1ccccc1 [Example 105, 1-(2-Phenoxyethyl)-1H-imidazo[4,5-c]quinolin-4-amine]		0.37	minimal effective concentration [1, 6]: 1.11 µM
CC[C@@H](COCc1ccc(C#N)cc1)n1cnc2c(N)nc3ccccc3c21 [Example 143, 4-({[(2S)-2-(4-Amino-1H-imidazo[4,5-c]quinolin-1-yl)butyl]oxy}methyl)benzonitrile]		1.11	minimal effective concentration [1, 6]: 3.33 µM
CC(C)C(COCc1ccc(C#N)cc1)n1cnc2c(N)nc3ccccc3c21 (centres unmarked) [Example 64]	*	3.33	
Nc1nc2ccccc2c2c1ncn2CCOCCCc1ccccc1C(=O)O (as salt: trifluoroacetate) [Example 13, 2-{3-[2-(4-Amino-1H-imidazo[4,5-c]quinolin-1-yl)ethoxy]propyl}benzoic acid trifluoroacetate]			melting point: 186 to 188 °C
CC(C)(Cn1cnc2c(N)nc3ccccc3c21)OCc1ccccc1 [Example 33]	*		Lowest Effective Concentration (μM) Interferon [1, 5]: *
CC(C)c1ccccc1C#CCOCCn1cnc2c(N)nc3ccccc3c21 [Example 7, 1-(2-{[3-(2-Isopropylphenyl)-2-propynyl]oxy}ethyl)-1H-imidazo[4,5-c]quinolin-4-amine Hydrochloride]		1.11	minimal effective concentration [1, 6]: 0.37 µM
Nc1nc2ccccc2c2c1ncn2CCOCCCc1ccccc1C(=O)O [Example 13, 2-{3-[2-(4-Amino-1H-imidazo[4,5-c]quinolin-1-yl)ethoxy]propyl}benzoic acid trifluoroacetate]		10	minimal effective concentration [1, 6]: 10 µM
